Experimental findings from patent US9309187B2, “EP2 receptor agonists” (TAKEDA GMBH, priority 2012, dated 2016) are described below.

Where two headings read alike, the source gives them in different places.

Experiment [1] deals with T1, human EP2 receptor (Homo sapiens, UniProt P43116).
T1 construct: purchased Millipore
Description: EP2 binding assay (PGE2 displacement). As to the method: Method for Measuring Inhibition of PGE2 Binding to the Human Prostanoid Receptor EP2:
Human EP2 receptor equilibrium competition binding assays were performed according to Abramovitz et al. (M. Abramovitz et al. 2000, Biochimica et Biophysica Acta 1483: 285-293) in a final incubation volume of 100 microL in 50 milliM Bis-Tris, pH6.0 in 96-well plates. Radiolabelled Prostaglandin E2 (PGE2) (1 nanoM [^3H]-PGE2 purchased from Perkin Elmer) was added to the assay as competitive ligand. Test compounds stored as Dimethylsulfoxide (DMSO) stock solutions were added to the assay in serial dilutions in assay buffer while keeping the final DMSO concentration equal in each sample. The reaction was initiated by addition of membrane proteins harbouring human EP2 receptor (ChemiSCREEN™ membrane preparation recombinant human EP2 prostanoid receptor that was purchased by Millipore). Total binding was determined in the absence of test compound or PGE2 and non-specific binding was determined in the presence of 1 microM PGE2. Incubations were conducted for 60 minutes at room temperature until equilibrium was reached and terminated by filtration through GF/B filter (Perkin Elmer) prewetted with 0.3% PEI solution. Unbound radiolabelled PGE2 was removed by 8 wash cycles with the same buffer under ice-cold conditions and the filters containing the residual radioactivity were dried for 60 minutes at 60° C. In order to measure the filter bound radioactivity, 40 microL microscint (scintillation liquid) was added to each filter and the chemiluminescence was determined by TopCount-NTX™. The specific binding was calculated by subtracting non-specific binding from each sample. Percent inhibition by test compounds was calculated based on specific binding without test compound. Each sample was measured in triplicates per experiment and for the calculation of the pIC50 at least 2 independent experiments were performed. Determination of half maximal inhibiting concentration (IC50) was performed with GraphPad Prism Software.
The numbers of the compounds correspond to the examples numbers.
EP2 Binding Assay (PGE2 Displacement): pIC50 Values

For experiment [2], the target named is T2, human prostanoid receptor EP2 (Homo sapiens, UniProt P43116).
T2 construct: expressed in transfected cells; host or cells: CHO-K1 (CHOp6CreLuc-huEP2)
The experiment can be described thus: EP2 cAMP release assay in CHOp6CreLuc-huEP2 cells (CRE-luciferase readout). The format is cell-based. As to the method: Method for Measuring cAMP Release in Human EP2 Stably Transfectant Cells:
The potency and efficacy of EP2 agonists have been determined via measuring cAMP release in stably transfectant CHO-K1 cell expressing the human prostanoid receptor EP2 and luciferase enzyme regulated via a 6 times CRE (cAMP response element) containing transcriptional promoter. CHOp6CreLuc-huEP2 cells were seeded into 384-well plate (1000 cells per well) in DMEM/F12 (Dulbecco's Modified Eagle Medium/Nutrient Mixture F12) cell culture medium containing 2% FCS (Fetal Calf Serum) and 500 μg/ml G418 24 hours prior to the experiment. Test compound was added as serial dilutions while keeping the final DMSO concentration constant in each well. […] Cells were incubated together with test compound or butaprost for 4 hours at 37° C. The cAMP release was determined indirectly via luciferase activity that directly correlated to the amount of luciferase enzyme expressed in response to cAMP regulated promoter activity. The luciferase activity was determined by addition of luciferin containing buffer and subsequent quantification of resulting luminescence. Each sample was measured in quadruplicates per experiment and half-maximal effective concentration (EC50) and relative maximal effect compared to butaprost was determined from 3 independent experiments with GraphPad Prism Software. A compound that achieved over 80% of the maximal effect of butaprost was considered as full agonist.
For the following compounds the potency was determined in the cAMP release assay applying human EP2 transfectant CHOp6CreLuc-huEP2 cells. […] The numbers of the compounds correspond to the examples numbers.
EP2 cAMP Release Assay: pEC50

Experiment [3] relates to TNFalpha release in human whole blood stimulated with LPS. Description: Inhibition of LPS induced TNFalpha release in human whole blood. The experiment is classed as cell-based. To be noted: 1 microg/mL LPS, 4 hours, reported as range bins, read-out: Inhibition of LPS induced TNFalpha release in human whole blood pIC30 (-log IC30). As to the method: Method for Measuring the Inhibition of TNFalpha Release in Human Whole Blood Stimulated with LPS:
Assay was performed with some modifications of the method described by Hatzelmann and Schudt (Hatzelmann and Schudt (2001) JPET 297: 267-279) and the protocol “drawing of venous blood from healthy volunteers for in vitro studies” was approved by the ethics committee of the Landesärztekammer Baden Württemberg in Stuttgart.
Heparinised venous blood was equilibrated to assay conditions for 1 hour at room temperature upon blood drawing. Immediately thereafter, 200 microL whole blood per sample were pre-incubated with 25 microL of a serial dilution of test compound or piclamilast as positive control for 30 min. at 37° C. After pre-incubation blood samples were stimulated by the addition of 25 microL lipopolysaccharide (LPS) (Sigma, Aldrich) per sample resulting in a final concentration of 1 microg/mL LPS and a final volume of 250 microL. Cells were incubated for 4 hours at 37° C. TNFalpha levels were determined from plasma that was obtained by a centrifugation step and transferring the supernatant to a new 96-well plate which was again centrifuged and clear plasma supernatant was used for the measurement of TNFalpha via alphaLISA Technology according to manufacture protocol (Perkin Elmer).
Whole blood samples that were not stimulated with LPS were used as control and set for 100% inhibition. Whole blood samples that were stimulated with LPS and solvent instead of test compound were set as 0% inhibition. Percent inhibition was calculated based on these controls for each sample and since most compounds achieved saturating maximal inhibition of 60% a pIC30 value was calculated with GraphPad Prism Software.
For the following compounds the inhibitory values of TNFalpha release [determined as −log IC30=pIC30] in the human whole blood assay between 4.5 and 4.9, between 5.0 and 5.9 and between 6.0 and 6.9 have been determined. The numbers of the compounds correspond to the examples numbers.
Inhibition of LPS Induced TNFalpha Release Assay in Human Whole Blood: pIC30

In experiment [4] the test system is TNFalpha release in human peripheral blood mononuclear cells (PBMC) stimulated with LPS. Description: Inhibition of LPS induced TNFalpha release in human PBMCs. The experiment is classed as cell-based. The conditions noted are these: 1 ng/mL LPS, 24 hours, reported as range bins, read-out: Inhibition of LPS induced TNFalpha release in human PBMCs pIC30 (-log IC30). Here is the method: Method for Measuring the Inhibition of TNFalpha Release in Human Peripheral Blood MononuClear Cells (PBMC) Stimulated with LPS:
Assay was performed with some modifications of the method described by Hatzelmann and Schudt (Hatzelmann and Schudt 2001, J. Pharmacol. Exp. Therapeutics 297: 267-279) and the protocol “drawing of venous blood from healthy volunteers for in vitro studies” was approved by the ethics committee of the Landesärztekammer Baden Württemberg in Stuttgart. Peripheral blood mononuclear cells (PBMCs) were isolated from venous blood with the anticoagulant citrate from healthy donors according to standard protocols using Ficoll. The cell layer of PBMCs were washed twice with phosphate buffer solution and equilibrated at room temperature for 60 minutes. 500,000 PBMCs in 180 microL RPMI1640 cell medium supplemented with 10% FCS, NEAA (Non-essential-amino-acids), L-Glutamine and Sodium Pyruvate per sample were pre-incubated with 10 microL of a serial dilution of test compound or piclamilast as positive control for 60 min. at 37° C. After pre-incubation blood samples were stimulated by the addition of 10 microL LPS (Sigma, Aldrich) per sample resulting in a final concentration of 1 ng/mL LPS and a final volume of 200 microL. Cells were incubated for 24 hours at 37° C. TNFalpha levels were determined from cell supernatant that was obtained by a centrifugation step and transferring the supernatant to a new 96-well plate. Content of TNFalpha was determined via alphaLISA Technology according to manufacture protocol (Perkin Elmer).
PBMC samples that were not stimulated with LPS were used as control and set for 100% inhibition. PBMC samples that were stimulated with LPS and solvent instead of test compound were set as 0% inhibition. Percent inhibition was calculated based on these controls for each sample and since most compounds achieved saturating maximal inhibition of 60% a pIC30 value was calculated with GraphPad Prism Software.
For the following compounds the inhibitory values of TNFalpha release [determined as −log IC30=pIC30] in human PBMCs between 5.0 and 5.9, between 6.0 and 6.9, between 7.0 and 7.9 and between 8.0 and 9.0 have been determined. The numbers of the compounds correspond to the examples numbers.
Inhibition of LPS Induced TNFalpha Release Assay in Human PBMCs: pIC30

[5] abbreviates: recombinant human EP2 membranes, 1 nanoM [3H]-PGE2, reported as range bins, read-out: EP2 binding (PGE2 displacement) pIC50 (-log IC50) (converted).
The mark [6] stands for this setting: CHOp6CreLuc-huEP2 cells, 4 hours at 37° C., reported as range bins, read-out: EP2 cAMP release assay pEC50 (-log EC50) (converted).

T2 sequence (P43116 whole entry): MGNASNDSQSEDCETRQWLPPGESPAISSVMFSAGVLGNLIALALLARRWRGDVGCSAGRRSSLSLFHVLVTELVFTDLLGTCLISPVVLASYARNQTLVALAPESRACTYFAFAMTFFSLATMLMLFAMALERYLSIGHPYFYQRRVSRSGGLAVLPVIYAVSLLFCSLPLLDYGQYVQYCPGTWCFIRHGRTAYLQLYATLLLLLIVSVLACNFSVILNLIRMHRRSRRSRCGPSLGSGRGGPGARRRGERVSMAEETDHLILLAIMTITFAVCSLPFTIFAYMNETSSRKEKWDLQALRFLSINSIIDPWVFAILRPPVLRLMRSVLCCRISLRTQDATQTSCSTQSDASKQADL
T1 sequence (P43116 whole entry): as above

In the case of `O=C(O)/C=C/c1ccc(F)c(NC(=O)c2cc(-c3cc(O)cc(F)c3)cc3ccccc23)c1` [Example 15, (2E)-3-[4-fluoro-3-({[3-(3-fluoro-5-hydroxyphenyl)naphthalen-1yl]carbonyl}amino)phenyl]prop-2-enoic acid], the IC50 (usually the midpoint of a concentration-inhibition curve) in experiment [1] (setting [5]) was 1.26 to 10 nM. In addition, the EC50 – broadly, the concentration that produces a half-maximal response – in experiment [2] (setting [6]) was 0.00631 to 0.1 nM. The IC30 (in general, the concentration needed for an effect of 30%) is 1260 to 10000 nM in experiment [3] and 1 to 10 nM in experiment [4].
For the compound `O=C(O)CCc1ccc(F)c(NC(=O)c2cc(-c3cccc(F)c3)cc3ccccc23)c1` [Example 17, 3-[4-fluoro-3-({[3-(3-fluorophenyl)naphthalen-1-yl]carbonyl}amino)phenyl]propanoic acid], in experiment [1] (setting [5]), the IC50 was 1.26 to 10 nM. In experiment [2] (setting [6]), the half-maximal effective concentration (EC50) was 0.126 to 1 nM. The IC30 in experiment [4] is 126 to 1000 nM.
For the compound `CC(=O)NCc1cccc(-c2cc(C(=O)Nc3cc(/C=C/C(=O)O)ccc3F)c3ccccc3c2)c1` [Example 18], the EC50 in experiment [2] (setting [6]) was 1.26 to 12.6 nM. The concentration for an effect of 30% (IC30) in experiment [4] fell in the range of 1260 to 10000 nM.
As for `O=C(O)COc1ccc(F)c(NC(=O)c2cc(-c3ccccc3)cc3ccccc23)c1` [Example 5, (4-fluoro-3-{[(3-phenylnaphthalen-1-yl)carbonyl]amino}phenoxy)acetic acid], the half-maximal inhibitory concentration (IC50) in experiment [1] (setting [5]) is 1.26 to 10 nM. Also, in experiment [2] (setting [6]), the EC50 is 0.00631 to 0.1 nM.
In the same order, the values of `O=C(O)/C=C/c1ccc(F)c(NC(=O)c2cc(-c3ccc(F)cc3)cc3ccccc23)c1` [Example 11, (2E)-3-{3-[({3-[4-fluorophenyl]naphthalen-1-yl}carbonyl)amino]-4fluorophenyl}prop-2-enoic acid] are 1.26 to 10 nM and 0.126 to 1 nM.
Take `O=C(O)/C=C/c1cccc(NC(=O)c2cc(N3CCOCC3)cc3ccccc23)c1` [Example 21, (2E)-3-[3-({[3-(morpholin-4-yl)naphthalen-1-yl]carbonyl}amino)phenyl]prop-2-enoic acid]: in experiment [1] (setting [5]), the 50% inhibitory concentration (IC50) was 126 to 2000 nM. For the same compound, the concentration giving a half-maximal response (EC50) in experiment [2] (setting [6]) was 1.26 to 12.6 nM. In experiment [4], the IC30 lay in the range of 126 to 1000 nM.
In the same order, the values of `O=C(O)CCc1ccc(F)c(NC(=O)c2cc(-c3ccccc3)cc3ccccc23)c1` [Example 8, 3-(4-fluoro-3-{[(3-phenylnaphthalen-1-yl)carbonyl]amino}phenyl) propanoic acid] are 12.6 to 100 nM, 0.126 to 1 nM and 126 to 1000 nM.
`O=C(O)/C=C/c1cccc(NC(=O)c2cc(-c3cccc(N4CCNCC4)c3)cc3ccccc23)c1` [Example 20, (2E)-3-{3[({3-[3-(piperazin-1-yl)phenyl]naphthalen-1-yl}carbonyl)amino]phenyl}prop-2-enoic acid]: the IC50 in experiment [1] (setting [5]) was 126 to 2000 nM. Further, in experiment [2] (setting [6]), the EC50 was 1.26 to 12.6 nM.
In the same order, the values of `O=C(O)COc1ccc(Cl)c(NC(=O)c2cc(-c3ccccc3)cc3ccccc23)c1` [Example 6] are 12.6 to 100 nM and 0.00631 to 0.1 nM.
In the case of `O=C(O)CCc1ccc(F)c(NC(=O)c2cc(-c3ccccc3F)cc3ccccc23)c1` [Example 16, 3-[4-fluoro-3-({[3-(2-fluorophenyl)naphthalen-1yl]carbonyl}amino)phenyl]-propanoicacid], the IC50 in experiment [1] (setting [5]) was 12.6 to 100 nM. For the same compound, the EC50 in experiment [2] (setting [6]) was 1.26 to 12.6 nM. In addition, in experiment [4], the IC30 is 126 to 1000 nM.
`CN(C)C(=O)Oc1cccc(-c2cc(C(=O)Nc3cccc(/C=C/C(=O)O)c3)c3ccccc3c2)c1` [Example 23, (2E)-3-(3-{[(3-{3-[(dimethylcarbamoyl)oxy]phenyl}naphthalen-1-yl)carbonyl]amino}phenyl)prop-2-enoic acid] came in with an IC50 in experiment [1] of 126 to 2000 nM. In experiment [2], this compound showed a concentration giving a half-maximal response (EC50) of 1.26 to 12.6 nM. For the same compound, the 30% effect concentration (IC30) in experiment [4] was 126 to 1000 nM.
For the compound `O=C(O)/C=C/c1ccc(F)c(NC(=O)c2cc(-c3cccc(CO)c3)cc3ccccc23)c1` [Example 14, (2E)-3-{4-fluoro-3-[({3-[3-(hydroxymethyl)phenyl]naphthalen-1-yl}carbonyl)amino]phenyl}prop-2-enoic acid], in experiment [1] (setting [5]), the IC50 was 1.26 to 10 nM. Besides, the EC50 in experiment [2] (setting [6]) is 0.126 to 1 nM. Besides, the IC30 in experiment [4] is 126 to 1000 nM.
On to `CCCC1([C@H](O)C/C=C/[C@H]2[C@H](O)CC(=O)[C@@H]2CCCCCCC(=O)OC)CCC1` [butaprost, reference compound], for which the “maximal effect of positive control relative to PGE2” value in experiment [2] (CHOp6CreLuc-huEP2 cells) is listed as “same maximal effect compared to the maximal effect of PGE2”.
On to `O=C(O)CCc1cccc(NC(=O)c2cc(-c3ccccc3)cc3ccccc23)c1` [Example 7, 3-(3-{[(3-phenylnaphthalen-1-yl)carbonyl]amino}phenyl) propanoic acid], for which the IC50 in experiment [1] (setting [5]) is 12.6 to 100 nM. Also, in experiment [2] (setting [6]), the EC50 is 0.126 to 1 nM. For the same compound, the IC30 in experiment [4] lay within 126 to 1000 nM.
